Laboratory results from EP2145877A2, “Aurora Kinase inhibitors” (Takeda Pharmaceutical Company Limited, priority 2006, dated 2008).

Target: Aurora B/INCENP (Homo sapiens, UniProt Q96GD4)
Assay: Inhibition of AIK: Aurora B/INCENP Direct Fluorescence Polarization (IMAP) kinase assay
Type: biochemical
Details: IC50 against AIK B; 10 uM ATP, 0.8 nM Aurora B/INCENP, 45 min at room temperature, FP readout; values given as bins
Procedure: Detection of the reaction product is performed by addition of Progressive IMAP binding reagent (Molecular Devices). Reaction product may be determined quantitatively by FP using an Analyst HT plate reader (Molecular Devices) with an excitation wavelength at 485 nm and emission at 530 nm and using a Fluorescein 505 dichroic mirror.
The assay reaction may be initiated as follows: 2 ul of (3x) 300 nM Fl-Peptide/30 uM ATP was added to each well of the plate, followed by the addition of 2 ul of (3x) inhibitor (2 fold serial dilutions for 11 data points for each inhibitor) containing 15% DMSO. Two microliters of (3x) 2.4 nM AuroraB/INCENP solution may be added to initiate the reaction (final enzyme concentration was 0.8 nM for Aurora B/INCENP). The reaction mixture may then be incubated at room temperature for 45 min, and quenched and developed by addition of 20 ul of 1 to 400 diluted Progressive IMAP binding reagent in 1x proprietary Progressive IMAP binding buffer A. Fluorescence polarization readings of the resulting reaction mixtures may be measured after a 60-minute incubation at room temperature.
IC50 values may be calculated by non-linear curve fitting of the compound concentrations and fluorescent polarization values to the standard IC50 equation.

Aurora B/INCENP, sequence (Q96GD4 whole entry): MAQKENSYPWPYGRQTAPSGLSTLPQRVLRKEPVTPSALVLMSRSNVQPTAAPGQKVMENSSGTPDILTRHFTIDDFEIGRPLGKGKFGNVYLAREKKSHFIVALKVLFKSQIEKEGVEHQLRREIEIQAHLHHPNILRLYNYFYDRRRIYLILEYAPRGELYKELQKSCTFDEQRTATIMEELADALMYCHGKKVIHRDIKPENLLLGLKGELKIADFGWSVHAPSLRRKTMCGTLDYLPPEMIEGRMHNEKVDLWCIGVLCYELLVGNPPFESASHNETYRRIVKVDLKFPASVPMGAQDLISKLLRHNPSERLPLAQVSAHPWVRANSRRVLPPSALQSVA
Aurora B/INCENP, sequence (Q9NQS7 whole entry partner): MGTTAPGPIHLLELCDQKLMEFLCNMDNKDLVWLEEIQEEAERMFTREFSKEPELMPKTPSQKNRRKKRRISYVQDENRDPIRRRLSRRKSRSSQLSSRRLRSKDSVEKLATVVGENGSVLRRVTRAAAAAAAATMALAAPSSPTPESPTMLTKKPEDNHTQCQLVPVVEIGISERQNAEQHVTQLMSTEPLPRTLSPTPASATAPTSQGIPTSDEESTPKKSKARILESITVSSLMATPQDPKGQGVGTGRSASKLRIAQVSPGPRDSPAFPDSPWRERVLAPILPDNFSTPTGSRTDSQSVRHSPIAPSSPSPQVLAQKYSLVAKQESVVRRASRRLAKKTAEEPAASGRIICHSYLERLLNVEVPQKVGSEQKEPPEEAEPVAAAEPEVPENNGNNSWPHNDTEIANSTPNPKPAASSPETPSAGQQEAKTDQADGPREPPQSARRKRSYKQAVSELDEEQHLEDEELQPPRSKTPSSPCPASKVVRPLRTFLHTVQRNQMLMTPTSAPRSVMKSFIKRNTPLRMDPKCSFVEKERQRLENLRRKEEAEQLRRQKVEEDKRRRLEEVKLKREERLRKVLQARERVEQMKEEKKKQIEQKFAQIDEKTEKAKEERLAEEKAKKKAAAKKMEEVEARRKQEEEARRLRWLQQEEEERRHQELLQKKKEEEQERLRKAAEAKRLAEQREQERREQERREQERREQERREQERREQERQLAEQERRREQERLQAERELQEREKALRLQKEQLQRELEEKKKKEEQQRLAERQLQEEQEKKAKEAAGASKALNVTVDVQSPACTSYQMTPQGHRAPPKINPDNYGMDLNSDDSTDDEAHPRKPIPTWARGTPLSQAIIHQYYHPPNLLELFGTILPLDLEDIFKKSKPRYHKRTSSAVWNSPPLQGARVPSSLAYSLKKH

Row | Compound | IC50 [nM]
1 | CNS(=O)(=O)c1cccc(-c2ccc(C)c3[nH]c4ncc(C)cc4c23)c1 [Compound 15, 3-(3,8-dimethyl-9H-pyrido[2,3-b]indol-5-yl)-N-methylbenzenesulfonamide] | ≤ 5
2 | CCS(=O)(=O)c1cccc(-c2cnc(Cl)c3[nH]c4ncc(C)cc4c23)c1 [Compound 40, 8-chloro-5-[3-(ethylsulfonyl)phenyl]-3-methyl-9H-pyrido[4',3':4,5]pyrrolo[2,3-b]pyridine] | ≤ 5
3 | CCS(=O)(=O)c1cccc(-c2cnc(OCCCO)c3[nH]c4ncc(C)cc4c23)c1 [Compound 55, 3-[5-(3-Ethanesulfonyl-phenyl)-3-methyl-9H-dipyrido[2,3-b;4',3'-d]pyrrol-8-yloxy]-propan-1-ol] | ≤ 5
4 | CCS(=O)(=O)c1cccc(-c2cnc(OC[C@H](C)O)c3[nH]c4ncc(C)cc4c23)c1 [Compound 62, (S)-1-[5-(3-Ethanesulfonyl-phenyl)-3-methyl-9H-dipyrido[2,3-b;4',3'-d]pyrrol-8-yloxy]-propan-2-ol] | ≤ 5
5 | CCS(=O)(=O)c1cccc(-c2cnc(OCC3CCN(C)CC3)c3[nH]c4ncc(Cl)cc4c23)c1 [Compound 72, 3-Chloro-5-(3-ethanesulfonyl-phenyl)-8-(1-methyl-piperidin-4-ylmethoxy)-9H-dipyrido[2,3-b;4',3'-d]pyrrole] | ≤ 5
6 | CCS(=O)(=O)c1cccc(-c2cc(C(=O)NC[C@H](C)O)c(C)c3[nH]c4ncc(C)cc4c23)c1 [Compound 100, (S)-5-(3-(ethylsulfonyl)phenyl)-N-(2-hydroxypropyl)-3,8-dimethyl-9H-pyrido[2,3-b]indole-7-carboxamide] | ≤ 5
7 | CCS(=O)(=O)c1cccc(-c2cc(C(=O)NCCO)c(C)c3[nH]c4ncc(C)cc4c23)c1 [Compound 101, 5-(3-(ethylsulfonyl)phenyl)-N-(2-hydroxyethyl)-3,8-dimethyl-9H-pyrido[2,3-b]indole-7-carboxamide] | ≤ 5
8 | CCS(=O)(=O)c1cccc(-c2cc(C(N)=O)cc3[nH]c4ncc(C)cc4c23)c1 [Compound 128, 5-(3-Ethanesulfonyl-phenyl)-3-methyl-9H-pyrido[2,3-b]indole-7-carboxylic acid amide] | ≤ 5
9 | CCS(=O)(=O)c1cccc(-c2cc(C(=O)O)cc3[nH]c4ncc(C)cc4c23)c1 [Compound 140, 5-(3-Ethanesulfonyl-phenyl)-3-methyl-9H-pyrido[2,3-b]indole-7-carboxylic acid] | ≤ 5
10 | CCS(=O)(=O)c1cccc(-c2ccc(OC)c3[nH]c4ncc(C)cc4c23)c1 [Compound 157] | ≤ 5
11 | CCS(=O)(=O)c1cccc(-c2ccc(O)c3[nH]c4ncc(C)cc4c23)c1 [Compound 158, 5-(3-(ethylsulfonyl)phenyl)-3-methyl-9H-pyrido[2,3-b]indol-8-ol] | ≤ 5
12 | CCNS(=O)(=O)c1cccc(-c2ccc(OC)c3[nH]c4ncc(C)cc4c23)c1 [Compound 170, N-ethyl-3-(8-methoxy-3-methyl-9H-pyrido[2,3-b]indol-5-yl)benzenesulfonamide] | ≤ 5

Further lines, results first:

Row | IC50 [nM] | Compound
13 | ≤ 5 | CCS(=O)(=O)c1cccc(-c2ccc(OCC3CCNCC3)c3[nH]c4ncc(C)cc4c23)c1 [Compound 185, 5-(3-(ethylsulfonyl)phenyl)-3-methyl-8-(piperidin-4-ylmethoxy)-9H-pyrido[2,3-b]indole]
14 | ≤ 5 | Cc1cnc2[nH]c3c(OCCCN(C)C)ccc(-c4cccc(S(=O)(=O)C5CC5)c4)c3c2c1 [Compound 194, 3-(5-(3-(cyclopropylsulfonyl)phenyl)-3-methyl-9H-pyrido[2,3-b]indol-8-yloxy)-N,N-dimethylpropan-1-amine]
15 | ≤ 5 | CCS(=O)(=O)c1cccc(-c2ccc(OCC3CCN(C)CC3)c3[nH]c4ncc(Cl)cc4c23)c1 [Compound 200, 3-chloro-5-(3-(ethylsulfonyl)phenyl)-8-((1-methylpiperidin-4-yl)methoxy)-9H-pyrido[2,3-b]indole]
16 | ≤ 5 | CCS(=O)(=O)c1cccc(-c2ccc(OCC3CCNCC3)c3[nH]c4ncc(Cl)cc4c23)c1 [Compound 201, 3-chloro-5-(3-(ethylsulfonyl)phenyl)-8-(piperidin-4-ylmethoxy)-9H-pyrido[2,3-b]indole]
17 | ≤ 5 | CCS(=O)(=O)c1cccc(-c2ccc(OCCCN(C)C)c3[nH]c4ncc(C)cc4c23)c1 [Compound 206, 3-(5-(3-(ethylsulfonyl)phenyl)-3-methyl-9H-pyrido[2,3-b]indol-8-yloxy)-N,N-dimethylpropan-1-amine]
18 | ≤ 5 | CCS(=O)(=O)c1cccc(-c2ccc(OCCCO)c3[nH]c4ncc(C)cc4c23)c1 [Compound 217, 3-(5-(3-(ethylsulfonyl)phenyl)-3-methyl-9H-pyrido[2,3-b]indol-8-yloxy)propan-1-ol]
19 | ≤ 5 | CCS(=O)(=O)c1cccc(-c2ccc(OCCCN(C)C)c3[nH]c4ncc(Cl)cc4c23)c1 [Compound 220, 3-(3-chloro-5-(3-(ethylsulfonyl)phenyl)-9H-pyrido[2,3-b]indol-8-yloxy)-N,N-dimethylpropan-1-amine]
20 | ≤ 5 | CCS(=O)(=O)c1cccc(-c2ccc(OC[C@H](O)CO)c3[nH]c4ncc(C)cc4c23)c1 [Compound 231, (R)-3-(5-(3-(ethylsulfonyl)phenyl)-3-methyl-9H-pyrido[2,3-b]indol-8-yloxy)propane-1,2-diol]
21 | ≤ 5 | CCN(CCO)CCCOc1ccc(-c2cccc(S(=O)(=O)C3CC3)c2)c2c1[nH]c1ncc(C)cc12 [Compound 270, 2-((3-(5-(3-(cyclopropylsulfonyl)phenyl)-3-methyl-9H-pyrido[2,3-b]indol-8-yloxy)propyl)(ethyl)amino)ethanol]
22 | ≤ 5 | CCN(CCCOc1ccc(-c2cccc(S(=O)(=O)C3CC3)c2)c2c1[nH]c1ncc(Cl)cc12)CCOP(=O)(O)O [Compound 299, 2-((3-(3-chloro-5-(3-(cyclopropylsulfonyl)phenyl)-9H-pyrido[2,3-b]indol-8-yloxy)propyl)(ethyl)ammo)ethyl dihydrogen phosphate]
23 | ≤ 5 | Cc1cnc2[nH]c3c(OC[C@@H](O)CN(C)C)ccc(-c4cccc(S(=O)(=O)C5CC5)c4)c3c2c1 [Compound 313, (S)-1-(5-(3-(cyclopropylsulfonyl)phenyl)-3-methyl-9H-pyrido[2,3-b]indol-8-yloxy)-3-(dimethylamino)propan-2-ol]
